Columns and labels:
B1R receptor of the rat = biological target: T1, B1R receptor of the rat (Rattus norvegicus, UniProt P97583); experiment: Functional study on the bradykinin receptor 1 (B1R), FLIPR Ca2+ assay, rB1R cells; format: cell-based; conditions: CHO-K1, test substance 10 μM, agonist Des-Arg9-bradykinin 100 nM, % inhibition compared with the maximum achievable inhibition, read-out: B1R Antagonism, rat [10 μM] % Inhibition
T1 construct: host or cells: CHO K1 cells (Chinese hamster ovary), stably transfected
T1 sequence (P97583 1-337): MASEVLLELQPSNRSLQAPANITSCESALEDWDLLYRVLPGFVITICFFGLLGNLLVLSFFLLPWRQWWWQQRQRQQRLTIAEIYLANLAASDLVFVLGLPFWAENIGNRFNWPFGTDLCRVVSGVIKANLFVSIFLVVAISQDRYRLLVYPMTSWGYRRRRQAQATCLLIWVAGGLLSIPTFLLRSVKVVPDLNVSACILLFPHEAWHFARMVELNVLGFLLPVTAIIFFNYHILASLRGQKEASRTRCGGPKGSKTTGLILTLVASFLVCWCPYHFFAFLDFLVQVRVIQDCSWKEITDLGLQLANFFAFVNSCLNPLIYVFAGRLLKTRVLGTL
Method in brief: (§1)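 Readout: peak Fluo-4 Ca2+ fluorescence, FLIPR. Stable CHO K1 hB1R or rB1R cells; cpd 10 μM, 10 min preincubation, then agonist (hB1R: Lys-Des-Arg9-BK 0.5 nM; rB1R: Des-Arg9-BK 100 nM). Value = % inhibition relative to maximal achievable inhibition.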

human B1R receptor = biological target: T2, human B1R receptor (Homo sapiens, UniProt P46663); experiment: Functional study on the bradykinin receptor 1 (B1R), FLIPR Ca2+ assay, hB1R cells; format: cell-based; conditions: CHO-K1, test substance 10 μM, agonist Lys-Des-Arg9-bradykinin 0.5 nM, % inhibition compared with the maximum achievable inhibition, read-out: B1R Antagonism, human [10 μM] % Inhibition
T2 construct: host or cells: CHO K1 cells (Chinese hamster ovary), stably transfected
T2 sequence (P46663 1-353): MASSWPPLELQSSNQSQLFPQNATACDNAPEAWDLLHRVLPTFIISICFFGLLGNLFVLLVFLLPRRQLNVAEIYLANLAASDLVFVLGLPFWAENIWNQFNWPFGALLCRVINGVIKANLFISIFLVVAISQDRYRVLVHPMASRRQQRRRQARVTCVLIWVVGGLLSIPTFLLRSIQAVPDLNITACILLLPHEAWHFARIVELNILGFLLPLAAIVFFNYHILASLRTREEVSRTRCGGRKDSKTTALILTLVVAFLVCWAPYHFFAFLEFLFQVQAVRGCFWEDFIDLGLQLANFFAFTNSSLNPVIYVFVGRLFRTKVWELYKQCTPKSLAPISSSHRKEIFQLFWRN
Method in brief: as §1

inhibition at 10 µM (B1R receptor of the rat) [%]	inhibition at 10 µM (human B1R receptor) [%]	SMILES
90.2	36.2	O=C(COCC1CCCN1S(=O)(=O)c1cc(Cl)sc1Cl)N1CCN(Cc2ccccc2)CC1 (centres unmarked) [Example 478, 1-(4-benzylpiperazin-1-yl)-2-((1-(2,5-dichlorothiophen-3-ylsulfonyl)pyrrolidin-2-yl)methoxy)ethanone]
99.1	32.3	COc1cc(C)c(S(=O)(=O)N2Cc3ccccc3CC2COCC(=O)N2CCN(c3ccccc3)CC2)c(C)c1C (centres unmarked) [Example 479, 2-((2-(4-Methoxy-2,3,6-trimethylphenylsulfonyl)-1,2,3,4-tetrahydroisoquinolin-3-yl)methoxy)-1-(4-phenylpiperazin-1-yl)ethanone]
103	101	O=C(COCC1CCCCN1S(=O)(=O)c1c(Cl)cccc1Cl)N1CCN(Cc2ccccc2)CC1 (centres unmarked) [Example 480, 1-(4-benzylpiperazin-1-yl)-2-((1-(2,6-dichlorophenylsulfonyl)piperidin-2-yl)methoxy)ethanone]
104	72.6	O=C(COCC1CCCCN1S(=O)(=O)c1c(Cl)cccc1Cl)N1CCN(c2cccc(C(F)(F)F)c2)CC1 (centres unmarked) [Example 481, 2-((1-(2,6-dichlorophenylsulfonyl)piperidin-2-yl)methoxy)-1-(4-(3-(trifluoromethyl)phenyl)piperazin-1-yl)ethanone]
102	97.9	CCN(Cc1ccncc1)C(=O)COCC1CCCCN1S(=O)(=O)c1c(Cl)cccc1Cl (centres unmarked) [Example 482, 2-((1-(2,6-dichlorophenylsulfonyl)piperidin-2-yl)methoxy)-N-ethyl-N-(pyridin-4-ylmethyl)acetamide]
104	103	CN1CCCN(C(=O)COCC2CCCCN2S(=O)(=O)c2c(Cl)cccc2Cl)CC1 (centres unmarked) [Example 483, 2-((1-(2,6-dichlorophenylsulfonyl)piperidin-2-yl)methoxy)-1-(4-methyl-1,4-diazepan-1-yl)ethanone]
101	75.6	O=C(COCC1CCCCN1S(=O)(=O)c1c(Cl)cccc1Cl)N1CCN(c2ccc(C(F)(F)F)cn2)CC1 (centres unmarked) [Example 484, 2-((1-(2,6-dichlorophenylsulfonyl)piperidin-2-yl)methoxy)-1-(4-(5-(trifluoromethyl)pyridin-2-yl)piperazin-1-yl)ethanone]
101	70.4	O=C(COCC1CCCCN1S(=O)(=O)c1c(Cl)cccc1Cl)N(Cc1ccccc1)c1ccccn1 (centres unmarked) [Example 486, N-benzyl-2-((1-(2,6-dichlorophenylsulfonyl)piperidin-2-yl)methoxy)-N-(pyridin-2-yl)acetamide]
99.1	101	Cc1ccc2[nH]c(C3CCN(C(=O)COCC4CCCCN4S(=O)(=O)c4c(Cl)cccc4Cl)CC3)nc2c1 (centres unmarked) [Example 487, 2-((1-(2,6-dichlorophenylsulfonyl)piperidin-2-yl)methoxy)-1-(4-(5-methyl-1H-benzo[d]imidazol-2-yl)piperidin-1-yl)ethanone]
102	101	O=C(COCC1CCCCN1S(=O)(=O)c1c(Cl)cccc1Cl)NC1CCN(Cc2ccccc2)CC1 (centres unmarked) [Example 488, N-(1-benzylpiperidin-4-yl)-2-((1-(2,6-dichlorophenylsulfonyl)piperidin-2-yl)methoxy)acetamide]
100	99.3	CN(C)CCN(Cc1ccccc1)C(=O)COCC1CCCCN1S(=O)(=O)c1c(Cl)cccc1Cl (centres unmarked) [Example 489, N-benzyl-2-((1-(2,6-dichlorophenylsulfonyl)piperidin-2-yl)methoxy)-N-(2-(dimethylamino)ethyl)acetamide]
103	93.5	CCc1ccc(CC2CCCN2C(=O)COCC2CCCN2S(=O)(=O)c2c(C)cc(OC)cc2C)nc1 (centres unmarked) [Example 490, 1-(2-((5-ethylpyridin-2-yl)methyl)pyrrolidin-1-yl)-2-((1-(4-methoxy-2,6-dimethylphenylsulfonyl)pyrrolidin-2-yl)methoxy)ethanone]
97.9	96.3	COc1cc(C)c(S(=O)(=O)N2CCCC2COCC(=O)N2CCN(c3ccccc3OC)CC2)c(C)c1 (centres unmarked) [Example 491, 2-((1-(4-methoxy-2,6-dimethylphenylsulfonyl)pyrrolidin-2-yl)methoxy)-1-(4-(2-methoxyphenyl)piperazin-1-yl)ethanone]
104	103	COc1cc(C)c(S(=O)(=O)N2CCCC2COCC(=O)N2CCN(CC3CCCCC3)CC2)c(C)c1 (centres unmarked) [Example 492, 1-(4-(cyclohexylmethyl)piperazin-1-yl)-2-((1-(4-methoxy-2,6-dimethylphenylsulfonyl)pyrrolidin-2-yl)methoxy)ethanone]
99.5	40.6	COc1cc(C)c(S(=O)(=O)N2CCCC2COCC(=O)Nc2ccc(N3CCOCC3)c(Cl)c2)c(C)c1 (centres unmarked) [Example 493, N-(3-chloro-4-morpholinophenyl)-2-((1-(4-methoxy-2,6-dimethylphenylsulfonyl)pyrrolidin-2-yl)methoxy)acetamide]
73.4	26.2	COc1cc(C)c(S(=O)(=O)N2CCCC2COCC(=O)Nc2ccc3c(c2)ncn3C)c(C)c1 (centres unmarked) [Example 494, 2-((1-(4-methoxy-2,6-dimethylphenylsulfonyl)pyrrolidin-2-yl)methoxy)-N-(1-methyl-1H-benzo[d]imidazol-5-yl)acetamide]
95.7	30.7	COc1cc(C)c(S(=O)(=O)N2CCCC2COCC(=O)NCC(c2ccc(C(F)(F)F)cc2)N(C)C)c(C)c1 (centres unmarked) [Example 495, N-(2-(dimethylamino)-2-(4-(trifluoromethyl)phenyl)ethyl)-2-((1-(4-methoxy-2,6-dimethylphenylsulfonyl)pyrrolidin-2-yl)methoxy)acetamide]
103	68.2	COc1cc(C)c(S(=O)(=O)N2CCCC2COCC(=O)NCC(c2ccc(C(F)(F)F)cc2)N2CCCC2)c(C)c1 (centres unmarked) [Example 496, 2-((1-(4-methoxy-2,6-dimethylphenylsulfonyl)pyrrolidin-2-yl)methoxy)-N-(2-(pyrrolidin-1-yl)-2-(4-(trifluoromethyl)phenyl)ethyl)acetamide]
101	66	O=C(COCC1CCCCN1S(=O)(=O)c1c(Cl)cccc1Cl)N1CCCC1c1cccnc1 (centres unmarked) [Example 497, 2-((1-(2,6-dichlorophenylsulfonyl)piperidin-2-yl)methoxy)-1-(2-(pyridin-3-yl)pyrrolidin-1-yl)ethanone]
96.7	94.2	COc1ccccc1N1CCN(C(=O)COCC2CCCCN2S(=O)(=O)c2c(Cl)cccc2Cl)CC1 (centres unmarked) [Example 498, 2-((1-(2,6-dichlorophenylsulfonyl)piperidin-2-yl)methoxy)-1-(4-(2-methoxyphenyl)piperazin-1-yl)ethanone]
101	103	O=C(COCC1CCCCN1S(=O)(=O)c1c(Cl)cccc1Cl)N1CCN(CC2CCCCC2)CC1 (centres unmarked) [Example 499, 1-(4-(cyclohexylmethyl)piperazin-1-yl)-2-((1-(2,6-dichlorophenylsulfonyl)piperidin-2-yl)methoxy)ethanone]
93.2	41.8	COc1cc(C)c(S(=O)(=O)N2CCCC2COCC(=O)NC(CN2CCOCC2)c2ccccc2)c(C)c1 (centres unmarked) [Example 500, 2-((1-(4-methoxy-2,6-dimethylphenylsulfonyl)pyrrolidin-2-yl)methoxy)-N-(2-morpholino-1-phenylethyl)acetamide]
89.7	65.1	COc1cc(C)c(S(=O)(=O)N2CCCC2COCC(=O)Nc2ccc3cnn(C)c3c2)c(C)c1 (centres unmarked) [Example 501, 2-((1-(4-methoxy-2,6-dimethylphenylsulfonyl)pyrrolidin-2-yl)methoxy)-N-(1-methyl-1H-indazol-6-yl)acetamide]
103	96.7	COc1cc(C)c(S(=O)(=O)N2CCCC2COCC(=O)NCC(c2ccccc2Cl)N2CCCC2)c(C)c1 (centres unmarked) [Example 502, N-(2-(2-chlorophenyl)-2-(pyrrolidin-1-yl)ethyl)-2-((1-(4-methoxy-2,6-dimethylphenylsulfonyl)pyrrolidin-2-yl)methoxy)acetamide]
97.9	103	COc1cc(OC)cc(N2CCN(C(=O)COCC3CCCN3S(=O)(=O)c3c(C)cc(OC)cc3C)CC2)c1 (centres unmarked) [Example 503, 1-(4-(3,5-dimethoxyphenyl)piperazin-1-yl)-2-((1-(4-methoxy-2,6-dimethylphenylsulfonyl)pyrrolidin-2-yl)methoxy)ethanone]
